Test results: the NIST ThermoML archive (doi:10.1007/s10765-014-1828-5)

Settings: 101.33 kPa, Liquid, Oscillating crucible method

[Ba+2].[F-].[F-] [barium difluoride]
Settings | viscosity [mPa·s]
1620.2 K | 3.56
1642.3 K | 3.46
1657.3 K | 3.309
1682.7 K | 3.165
1697.5 K | 2.995
1722.7 K | 2.899
1723.2 K | 2.856
1738.8 K | 2.766
1763.4 K | 2.665
1779.4 K | 2.57
1802.5 K | 2.461
1819.5 K | 2.368
1842.3 K | 2.3
1860.1 K | 2.237
1880.4 K | 2.172

[Ca+2].[F-].[F-] [calcium fluoride]
Settings | viscosity [mPa·s]
1703.3 K | 2.932
1703.6 K | 2.878
1713.5 K | 2.82
1722.7 K | 2.77
1732.2 K | 2.735
1742.2 K | 2.657
1751.6 K | 2.623
1760.6 K | 2.562
1761.2 K | 2.586
1763.4 K | 2.571
1770.5 K | 2.542
1780.9 K | 2.476
1790.5 K | 2.432
1800.8 K | 2.408
1807.3 K | 2.371
1820.5 K | 2.34
1832.8 K | 2.265
1839.9 K | 2.268
1847.7 K | 2.223
1858.7 K | 2.185
1868.1 K | 2.149

[F-].[F-].[Mg+2] [magnesium difluoride]
Settings | viscosity [mPa·s]
1514.7 K | 2.416
1534.7 K | 2.25
1554.7 K | 2.257
1574.1 K | 2.09
1613.7 K | 2.081
1633.2 K | 2.036
1653.4 K | 1.98
1673.9 K | 1.895
1690.6 K | 1.784
1716.7 K | 1.763
1731 K | 1.758
1751 K | 1.68
1773 K | 1.632
1792.8 K | 1.588
1814.2 K | 1.602
1831.8 K | 1.552
1853.2 K | 1.448

[F-].[F-].[Sr+2] [strontium fluoride]
Settings | viscosity [mPa·s]
1743.4 K | 3.023
1749.8 K | 2.953
1750.4 K | 2.972
1762.4 K | 2.915
1769 K | 2.866
1780.9 K | 2.804
1788.6 K | 2.729
1796.9 K | 2.698
1810.3 K | 2.628
1817.9 K | 2.584
1826.5 K | 2.561
1833.2 K | 2.512
1846.4 K | 2.449
1852.2 K | 2.401
1854.3 K | 2.405
1864.6 K | 2.374
